Reference: patent EP1192131B1, “METHOD OF INHIBITING AMYLOID PROTEIN AGGREGATION AND IMAGING AMYLOID DEPOSITS USING ISOINDOLINE DERIVATIVES” (Warner-Lambert Company LLC, priority 1999, dated 2000)
pIC50: −log10 of the molar value. Where “and” joins values, the source holds several entries; their conditions need not be identical. Equal values may be shown once. Read-outs that look alike come from different tables or passages of the source.

Assays:
Type in all cases: biochemical
Aβ(1-40) = Aβ(1-40) (Homo sapiens, UniProt P05067); assay: BASST (Beta-Amyloid Self-seeding, ThioflavinT), inhibition of self-seeded amyloid fibril growth; set-up: 30 µM soluble Aβ (1-40) in deionized water in assay buffer; conditions: 30 µM soluble Aβ (1-40), 37°C, 3 to 5 hours, thioflavin T fluorescence, letter in parentheses = lot of compound (no letter = Lot P); for IC50: read-out: BASST IC50 (converted); for pIC50: read-out: BASST IC50
Experimental: BASST (Beta-Amyloid Self-seeding, ThioflavinT)
An assay for inhibitors of self-seeded amyloid fibril growth
Assay Buffer - 50 mM sodium phosphate, pH 7.5, 100 mM NaCl, 0.02% NaN3, 1 M urea (filter and store at 4°C).
Soluble Aβ (1-40) - 2.2 mg/mL in deionized H2O (store in aliquots at -20°C, keep on ice when thawed) will self-seed after 1 week storage. Typically, the solution should be stored until no lag phase is seen in the assay.
Final assay conditions: 30 µM soluble Aβ (1-40) in deionized water in assay buffer. Compound to be tested is dissolved in DMSO, typically 5-50 mM stock, such that the final concentration of DMSO is <1% v/v in the assay.
Assay: Reaction mixture for 50 assays (on ice) comprised of 1 µL of soluble Aβ (1-40) + 13.5 µL assay buffer per assay. The following are the amounts of the components of the reaction mixture that result in each of the 50 assay wells. 50 µL soluble Aβ (1-40) 675 µL assay buffer
• 1) Prepare the reaction mix above by mixing the components and storing on ice. • 2) Pipet 14.5 µL of reaction mixture into each of 50 wells of a polystyrene U-bottom 96-well microtiter plate (Coming 25881-96) on ice. • 3) Add 1.7 µL of diluted compound to be tested to each well in a column of eight, including solvent control. Serial 3-fold dilutions from 1 mM (100 µM final) in assay buffer -urea = 7 dilutions + zero. Each 96-well plate can therefore accommodate 11 samples + 1 Congo Red control (0.039-5 µM final in 2-fold steps). • 4) Seal the plate with aluminum film and incubate for 10 minutes on ice. • 5) Raise the temperature to 37°C and incubate for 3 to 5 hours (depends on the lot of the peptide). • 6) Remove the aluminum film and add 250 µL/well of 5 µM thioflavin T (ThT) [T-3516, Sigma-Aldrich] in 50 mM glycine-NaOH, pH 8.5. Read fluorescence on a plate reader (ex = 440 nm/20 nm; em = 485 nm/20 nm) within 5 minutes.

Aβ (1-40) peptide = target: T1, Aβ (1-40) peptide (Homo sapiens, UniProt P05067); assay: BAPA (Beta-Amyloid Peptide Aggregation, pH 6.0), filtration endpoint assay
T1 construct: 10 µL 0.5 mg/mL Aβ (1-40) peptide in 20% HFIP
Experimental: BAPA (Beta-Amyloid Peptide Aggregation
This assay is used to provide a measure of inhibition by a compound against the aggregation behavior of the beta amyloid peptide.
The purpose of this assay is to provide a higher volume method of assaying the amount of beta amyloid aggregation using an endpoint assay based on filtration. In this assay, hexafluoroisopropanol (HFIP) is used to break down the initial amyloid peptide to a monomer state and use a concentration of 33 µM which is high enough so that aggregation will occur at pH 6.0 in several hours.
β-Amyloid Peptide Aggregation. pH 6 0 (BAPA)
In a 96-well plate (Costar 3794), we add 25 µL 50 mM Phosphate Buffer, pH 6.0, 10 µL 0.5 mg/mL Aβ (1-40) peptide in 20% HFIP + 0.1 µL/assay radioiodinated ^125I Aβ (1-40) [^125I Aβ(1-40)], and 1 µL of the compound to be tested starting at 50 mM with a concentration of DMSO <1%. Then, we incubate for 2 to 4 hours at room temperature. We stop the reaction with 200 µL of 50 mM phosphate buffer, pH 6.0, and filter it through a 0.2 µm 96-well filter plate (Millipore MAGU N22) We wash the filter plate with 100 µL of the same phosphate buffer. Aggregation was detected on a Microbeta counter after impregnating the filters with Meltilex (1450-441) and is corrected for background

Aβ (1-42) = target: T2, Aβ (1-42) (Homo sapiens, UniProt P05067); assay: BATYM assay, Aβ (1-42) aggregation, Thioflavin T fluorescence
T2 construct: Required Aβ (1-42)(California Peptide) was dried from its hexafluoroisopropanol (HFIP) stock solution; purchased California Peptide
Experimental: Required Aβ (1-42)(California Peptide) was dried from its hexafluoroisopropanol (HFIP) stock solution. The Aβ (1-42) was dissolved in dimethylsulfoxide (DMSO) and then mixed with phosphate buffered saline (PBS) (pH 7.4). The mixed Aβ (1-42) solution was filtered through a […] Omnipore membrane syringe filter (Millipore, Bedford, MA). The compound to be tested in DMSO (50 times concentrate) was put into each well (0.5 µL/well) of a 96-well plate. The Aβ (1-42) solution was added into each well (24.5 µL/well). The plate was centrifuged at 1,000 g for 5 minutes and incubated at 37°C for 1 day (Aβ 1-42; final concentration 100 µM).
After incubation Thioflavin T (ThT) (30 µM) solution in glycine-NaOH buffer (pH 8.5, 50 mM) was added into each well (250 µL/well), fluorescence was measured (ex. 440/20 nm; em 485/20 nm) using a fluorescence plate reader. The inhibitory activity was calculated as the reduction of fluorescence with the following formula: Inhibition (%) = {(F(Aβ)-F(Aβ+compound)}/{F(Aβ)-F (solvent+compound)} × 100 [formula]
The IC50s (concentration of test compound required to cause a 50% inhibition of aggregation) were calculated by a curve fitting program using the following equation. The data were obtained from two different experiments in triplicate. Inhibition (x) = 100-100/{1 + (x/IC50)^n }, [formula] x = concentration of tested compound (M), IC50 = (M), n = Hill coefficient.

[1] = Aβ (1-40) 33 µM, pH 6.0, 2 to 4 hours at room temperature; letter in parentheses = lot of compound (no letter = Lot P); read-out: BAPA IC50
[2] = Aβ 1-42 final concentration 100 µM, 37°C, 1 day, letter in parentheses = lot of compound (no letter = Lot P), read-out: BATYM IC50
[3] = read-out: BAPA IC50; Aβ (1-40) 33 µM, pH 6.0, 2 to 4 hours at room temperature; letter in parentheses = lot of compound (no letter = Lot P)
[4] = read-out: BATYM IC50, Aβ 1-42 final concentration 100 µM, 37°C, 1 day, letter in parentheses = lot of compound (no letter = Lot P)

T2 sequence (P05067 672-713): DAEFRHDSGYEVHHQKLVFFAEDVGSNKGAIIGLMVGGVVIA
Sequence of Aβ(1-40) (P05067 672-711): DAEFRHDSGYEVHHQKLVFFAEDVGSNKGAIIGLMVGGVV
T1 sequence (P05067 672-711): as above

| IC50 (Aβ(1-40)) | pIC50 (Aβ (1-40) peptide; [1]) | pIC50 (Aβ (1-42); [2]) | Molecule | pIC50 (Aβ(1-40)) | pIC50 (Aβ (1-40) peptide; [3]) | pIC50 (Aβ (1-42); [4]) |
| --- | --- | --- | --- | --- | --- | --- |
| 0.7 µM | < 4.22 | 5.02 | COc1cccc(N2Cc3ccc(Nc4ccc([N+](=O)[O-])cc4C(=O)O)cc3C2)c1 [Example 21, 2-[2-(3-Methoxy-phenyl)-2,3-dihydro-1H-isoindol-5-ylamino]-5-nitro-benzoic acid] |  |  |  |
| 1.5 µM | 4.40 | 4.70 | Nc1ccc(Nc2ccc3c(c2)CN(c2ccc(Cl)c(Cl)c2)C3)c(C(=O)O)c1 [Example 17, 5-Amino-2-[2-(3,4-dichloro-phenyl)-2,3-dihydro-1H-isoindol-5-ylamino]-benzoic acid] |  |  |  |
| 3 µM and 2 µM (2×) | 4.21 | 4.47 | O=C(O)c1cc(F)ccc1Nc1ccc2c(c1)CN(c1ccc(Cl)c(Cl)c1)C2 [Example 23, 2-[2-(3,4-Dichloro-phenyl)-2,3-dihydro-1H-isoindol-5-ylamino]-5-fluoro-benzoic acid] |  |  |  |
| 15 µM | 4.60 | < 4.00 | COc1cc(N2Cc3ccc(Nc4ccccc4C#N)cc3C2)cc(OC)c1OC [Example 25, 2-[2-(3,4,5-Trimethoxy-phenyl)-2,3-dihydro-1H-isoindol-5-ylamino]-benzonitrile] |  |  |  |
| 0.9 µM and 1 µM and 0.6 µM | 4.01 | 4.78 | O=C(O)c1cc([N+](=O)[O-])ccc1Nc1ccc2c(c1)CN(c1ccccc1)C2 [Example 18, 5-Nitro-2-(2-phenyl-2,3-dihydro-1H-isoindol-5-ylamino)-benzoic acid] |  |  |  |
| 10 µM | < 4.22 | 4.19 | COc1cccc(N2Cc3ccc(Nc4ccccc4C(=O)O)cc3C2)c1 [Example 26, 2-[2-(3-Methoxy-phenyl)-2,3-dihydro-1H-isoindol-5-ylamino]-benzoic acid] |  |  |  |
| 1.8 µM | 4.07 | 4.53 | Clc1ccc(N2Cc3ccc(Nc4ccccc4-c4nnn[nH]4)cc3C2)cc1Cl [Example 16, [2-(3,4-Dichloro-phenyl)-2,3-dihydro-1H-isoindol-5-yl]-[2-(1H-tetrazol-5-yl)-phenyl]-amine] |  |  |  |
| 6 µM and 2 µM | < 4.22 | 4.08 | O=C(O)c1ccccc1Nc1ccc2c(c1)CN(c1cccc(F)c1)C2 [Example 22, 2-[2-(3-Fluoro-phenyl)-2,3-dihydro-1H-isoindol-5-ylamino]-benzoic acid] |  |  |  |
| 2 µM | < 4.22 | 4.94 | O=C(O)c1cc([N+](=O)[O-])ccc1Nc1ccc2c(c1)CN(c1cccc(F)c1)C2 [Example 20, 2-[2-(3-Fluoro-phenyl)-2,3-dihydro-1H-isoindol-5-ylamino]-5-nitro-benzoic acid] |  |  |  |

More lines, now with the values behind:

| Molecule | IC50 (Aβ(1-40)) | pIC50 (Aβ (1-40) peptide; [1]) | pIC50 (Aβ (1-42); [2]) | pIC50 (Aβ(1-40)) | pIC50 (Aβ (1-40) peptide; [3]) | pIC50 (Aβ (1-42); [4]) |
| --- | --- | --- | --- | --- | --- | --- |
| Cc1ccc(N2Cc3ccc(Nc4ccc([N+](=O)[O-])cc4C(=O)O)cc3C2)cc1C [Example 12, 2-[2-(3,4-Dimethyl-phenyl)-2,3-dihydro-1H-isoindol-5-ylamino]-5-nitro-benzoic acid] | 1.1 µM | 5.30 | 4.93 |  |  |  |
| O=C(O)c1cc([N+](=O)[O-])ccc1Nc1ccc2c(c1)CN(c1ccc(Cl)cc1)C2 [Example 15, 2-[2-(4-Chloro-phenyl)-2,3-dihydro-1H-isoindol-5-ylamino]-5-nitro-benzoic acid] | 0.6 µM | < 4.00 | 4.49 |  |  |  |
| 2-[2-(3-chlorophenyl)-2,3-dihydro-1H-isoindol-5-ylamino]benzoic acid [Example 7] | 1.1 µM | 4.55 | 4.43 |  |  |  |
| O=C(O)c1cc([N+](=O)[O-])ccc1Nc1ccc2c(c1)CN(c1ccc(Cl)c(C(F)(F)F)c1)C2 [Example 19, 2-[2-(4-Chloro-3-trifluoromethyl-phenyl)-2,3-dihydro-1H-isoindol-5-ylamino]-5-nitro-benzoic acid] |  |  |  | 6.00 | < 5.00 | 4.89 |
| 2-[2-(3,4-Dimethylphenyl)-2,3-dihydro-1H-isoindol-5-ylamino]benzoic acid [Example 9] | 1.5 µM | 4.89 | 4.48 |  |  |  |
| O=C(O)c1ccccc1Nc1ccc2c(c1)CN(c1ccc(Cl)c(C(F)(F)F)c1)C2 [Example 10, 2-[2-(4-Chloro-3-trifluoromethylphenyl)-2,3-dihydro-1H-isoindol-5-ylamino]benzoic acid] |  |  |  | 5.52 | 4.80 | 4.46 |
| O=C(O)c1ccccc1Nc1ccc2c(c1)CN(c1ccc(Cl)c(Cl)c1)C2 [Example 4, 2-[2-(3,4-Dichlorophenyl)-2,3-dihydro-1H-isoindol-5-ylamino]benzoic acid] | 2 µM | 4.00 and < 4.00 and 4.03 | 4.58 and 4.65 |  |  |  |
| COc1cc(Nc2ccc3c(c2)CN(c2ccc(Cl)c(Cl)c2)C3)c(C(=O)O)cc1[N+](=O)[O-] [Example 6, 2-[2-(3,4-Dichlorophenyl)-2,3-dihydro-1H-isoindol-5-ylamino]-4-methoxy-5-nitro-benzoic acid] | 1 µM and 1.5 µM | 4.85 | 4.87 and 4.84 |  |  |  |
| 2-[2-(4-chlorophenyl)-2,3-dihydro-1H-isoindol-5-ylamino]benzoic acid [Example 8] | 1 µM | 4.72 | 4.48 |  |  |  |
